The source of these data is article doi:10.1101/717207v1 (bioRxiv, 2019).

Data set [1] is described as follows: Peptide binding to heparin studied by ITC. Conditions: heparin into peptide, PBS, one site model, average of two experiments. (In general: Isothermal titration calorimetry measures the heat released or taken up as one component is titrated into another.)
Data set [2] can be described thus: Peptide secondary structure by ATR-FTIR in the absence or presence of heparin. Format: physicochemical. Conditions: for Percentage of structural elements: β-strand: ATR-FTIR amide I deconvolution, 1627 cm^-1; for Percentage of structural elements: Random coil / Percentage of structural elements: α-Helix / Percentage of structural elements: Turn: ATR-FTIR; for Percentage of structural elements: Random coil: 1643 cm^-1; for Percentage of structural elements: α-Helix: 1659 cm^-1; for Percentage of structural elements: Turn: 1679 cm^-1.

Data set [3] can be described thus: Peptide binding to POPG LUVs studied by ITC. Conditions: POPG LUVs into peptide, PBS, one site model, once or twice.
A short description of data set [4]: Perturbation of DMPG membrane organization probed by DSC. Format: physicochemical. The note with it: DMPG MLVs 1 mg/mL in PBS, peptide-to-lipid ratio 1/50, 1°C/min, 0-50°C.
The mark [5] stands for this setting: +Hep (8.3 µM heparin, peptide per ITC stoichiometry).

Consider RWWWWRRRR [nR5W4], for which, in data set [1], the TΔS is -707.1 kJ/mol and the ΔH is -750.2 kJ/mol. Further, in data set [2] (peptide alone, 100 µM in PBS), the “Percentage of structural elements: β-strand” value (“Percentage … β-strand” below) is reported as 17%, the “Percentage of structural elements: Random coil” value (shortened to “Percentage … Random coil”) is on record as 22%, the “Percentage of structural elements: α-Helix” value (“Percentage … α-Helix” for short) was 26% and the “Percentage of structural elements: Turn” value is 35%. Further, in data set [2] (setting [5]), the “Percentage … Random coil” value was found to be 22%, the “Percentage … α-Helix” value was 26% and the “Percentage of structural elements: Turn” value is 32%. Further, in data set [3], the TΔS was found to be 23.8 kJ/mol and the ΔH is -8.79 kJ/mol.
In data set [1], RRRRWRRRR [Peptide R8W1-1] showed a TΔS of -299 kJ/mol and a ΔH of -342 kJ/mol. In data set [3], this sequence yielded a TΔS of 25.9 kJ/mol and a ΔH of -3.01 kJ/mol.
For the sequence RRRRRRRRW [Peptide R8W1-2], in data set [1], the TΔS was -343 kJ/mol and the ΔH was -386 kJ/mol. For the same sequence, in data set [3], the TΔS stood at 28 kJ/mol and the ΔH was -3.31 kJ/mol.
In data set [1], RRRWRRWRR [aR7W2] had a TΔS of -361 kJ/mol and a ΔH of -405 kJ/mol. Further, in data set [2] (peptide alone, 100 µM in PBS), the “Percentage … β-strand” value was 22%, the “Percentage … Random coil” value is on record as 18%, the “Percentage … α-Helix” value worked out at 25% and the “Percentage of structural elements: Turn” value is 35%. In addition, in data set [2] (setting [5]), the “Percentage … Random coil” value worked out at 20%, the “Percentage … α-Helix” value is reported as 26% and the “Percentage of structural elements: Turn” value is given as 37%. In data set [3], this sequence had a TΔS of 25.9 kJ/mol and a ΔH of -3.51 kJ/mol.
For the sequence RRRRRRRRR [Peptide R9], in data set [1], the TΔS was -253 kJ/mol and the ΔH was -300 kJ/mol. In data set [3], the TΔS is 31 kJ/mol and the ΔH is -2.51 kJ/mol.
For the sequence RWRWRRRRR [nR7W2], in data set [1], the TΔS is -347 kJ/mol and the ΔH was -391 kJ/mol. In data set [3], this sequence had a TΔS of 28 kJ/mol and a ΔH of -3.39 kJ/mol.
For RRWWRRWRR [aR6W3], in data set [1], the TΔS was -441.8 kJ/mol and the ΔH is -487 kJ/mol. For the same sequence, in data set [2] (peptide alone, 100 µM in PBS), the “Percentage … β-strand” value stood at 13%, the “Percentage … Random coil” value came to 17%, the “Percentage … α-Helix” value was 30% and the “Percentage of structural elements: Turn” value is listed as 40%. In addition, in data set [2] (setting [5]), the “Percentage … Random coil” value amounted to 24%, the “Percentage … α-Helix” value was 28% and the “Percentage of structural elements: Turn” value was determined as 40%. In data set [3], this sequence showed a TΔS of 23.8 kJ/mol and a ΔH of -5.82 kJ/mol.
As for RRDWDWRRDWRR [Peptide R6DW3], the “effect on DMPG bilayer organization (phase transitions)” value in data set [4] is reported as “almost identical to that of aR6W3”. Also, in data set [1], the TΔS is -337 kJ/mol and the ΔH was -381 kJ/mol. In data set [3], the TΔS was 25.9 kJ/mol and the ΔH is -3.1 kJ/mol.
In data set [1], RRWRRRRWW [nR6W3] gave a TΔS of -472.8 kJ/mol and a ΔH of -515.9 kJ/mol. In data set [2] (peptide alone, 100 µM in PBS), the “Percentage … β-strand” value stood at 21%, the “Percentage … Random coil” value is 23%, the “Percentage … α-Helix” value worked out at 25% and the “Percentage of structural elements: Turn” value is 31%. In data set [2] (setting [5]), the “Percentage … Random coil” value is given as 24%, the “Percentage … α-Helix” value came to 27% and the “Percentage of structural elements: Turn” value is given as 22%. In data set [3], this sequence registered a TΔS of 27.2 kJ/mol and a ΔH of -5.31 kJ/mol.
In data set [1], RRWWRRWWR [aR5W4] came in with a TΔS of -694.1 kJ/mol and a ΔH of -738.9 kJ/mol. Besides, in data set [2] (peptide alone, 100 µM in PBS), the “Percentage … β-strand” value worked out at 11%, the “Percentage … Random coil” value was 24%, the “Percentage … α-Helix” value was 29% and the “Percentage of structural elements: Turn” value is listed as 36%. In data set [2] (setting [5]), the “Percentage … Random coil” value is given as 20%, the “Percentage … α-Helix” value is given as 30% and the “Percentage of structural elements: Turn” value is 30%. In data set [3], this sequence registered a TΔS of 20.9 kJ/mol and a ΔH of -10.6 kJ/mol.
